Data taken from PMC5063830, “Design and synthesis of chalcone derivatives as potential non-purine xanthine oxidase inhibitors” (SpringerPlus, 2016).
pIC50: −log10 of the molar value.

Assays:
xanthine oxidase = xanthine oxidase (Bos taurus, UniProt P80457); assay: Assessment of xanthine oxidase inhibitory activity (spectrophotometric, 290 nm); type: biochemical; settings: for pIC50: 150 μM xanthine, 70 mM phosphate buffer pH 7.5, 25 °C, mean of four determinations, read-out: XO inhibitory activity IC50
xanthine oxidase, sequence (P80457 2-1332 limits assumed): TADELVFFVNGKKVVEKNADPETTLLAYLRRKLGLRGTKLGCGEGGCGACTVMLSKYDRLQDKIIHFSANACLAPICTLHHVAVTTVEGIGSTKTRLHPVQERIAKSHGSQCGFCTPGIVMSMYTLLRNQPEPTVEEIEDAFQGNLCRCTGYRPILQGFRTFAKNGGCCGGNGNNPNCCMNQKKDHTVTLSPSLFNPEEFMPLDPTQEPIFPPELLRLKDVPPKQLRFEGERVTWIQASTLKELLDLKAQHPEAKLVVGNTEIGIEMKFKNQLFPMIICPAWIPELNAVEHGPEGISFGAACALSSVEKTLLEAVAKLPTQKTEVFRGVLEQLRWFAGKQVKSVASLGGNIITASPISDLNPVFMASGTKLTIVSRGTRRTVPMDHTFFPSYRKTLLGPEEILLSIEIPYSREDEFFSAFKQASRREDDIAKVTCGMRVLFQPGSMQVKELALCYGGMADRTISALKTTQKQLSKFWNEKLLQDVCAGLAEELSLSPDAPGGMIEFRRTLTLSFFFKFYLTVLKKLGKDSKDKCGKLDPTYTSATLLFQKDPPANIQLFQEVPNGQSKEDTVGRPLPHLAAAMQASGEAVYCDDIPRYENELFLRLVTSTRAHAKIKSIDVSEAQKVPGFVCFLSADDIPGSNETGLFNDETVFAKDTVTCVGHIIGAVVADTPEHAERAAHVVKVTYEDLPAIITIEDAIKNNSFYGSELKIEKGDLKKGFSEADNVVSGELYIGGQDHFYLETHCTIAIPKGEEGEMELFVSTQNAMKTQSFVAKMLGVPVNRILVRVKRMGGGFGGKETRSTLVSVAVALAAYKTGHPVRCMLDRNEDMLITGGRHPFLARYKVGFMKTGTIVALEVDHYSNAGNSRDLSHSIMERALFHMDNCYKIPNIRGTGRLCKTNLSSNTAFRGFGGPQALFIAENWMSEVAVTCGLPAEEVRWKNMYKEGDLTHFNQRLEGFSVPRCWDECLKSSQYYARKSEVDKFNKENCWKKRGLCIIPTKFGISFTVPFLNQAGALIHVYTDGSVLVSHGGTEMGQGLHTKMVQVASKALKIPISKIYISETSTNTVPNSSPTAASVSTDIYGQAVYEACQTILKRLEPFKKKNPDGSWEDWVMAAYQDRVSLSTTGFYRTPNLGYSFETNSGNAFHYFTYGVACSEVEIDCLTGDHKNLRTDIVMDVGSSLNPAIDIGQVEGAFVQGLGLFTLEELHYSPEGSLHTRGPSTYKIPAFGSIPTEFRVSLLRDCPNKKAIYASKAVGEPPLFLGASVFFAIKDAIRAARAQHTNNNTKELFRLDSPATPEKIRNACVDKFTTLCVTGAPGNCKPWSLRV
Experimental: The assay mixture consisting of 50 μL of test solution, 35 μL of 70 mM phosphate buffer (pH 7.5), and 30 μL of enzyme solution (0.01 units/mL in 70 mM phosphate buffer, pH 7.5) was prepared immediately before use. […] The reaction was stopped by adding 25 μL of HCl 1 N, and the absorbance at 290 nm was measured with a Shimadzu UV-1800. […] XO inhibitory activity was expressed as the percentage inhibition of XO in the above assay system, calculated as (1 − B/A) × 100, where A and B are the activities of the enzyme without and with the test material. IC50 values were calculated from the mean values of data from four determinations.

XO inhibitory activity (in words) (xanthine oxidase) | pIC50 (xanthine oxidase) | SMILES | melting point
do not show activity | < 4.00 | O=C(/C=C/c1ccccc1)c1ccc(O)cc1O [Compound 4, 2′,4′-dihydroxychalcone] | 
 | < 4.00 | COc1ccc(C(=O)/C=C/c2ccc(OC)c(OC)c2)c(O)c1 [Compound 16, 2ʹ-hydroxy-3,4,4ʹ-trimethoxychalcone] | 
 | 4.44 | COc1ccc(/C=C/C(=O)c2ccc(O)cc2O)cc1O [Compound 8, 3,2ʹ,4ʹ-trihydroxy-4-methoxychalcone] | 
 | 5.37 | O=C(/C=C/c1ccc(O)c(O)c1)c1ccc(O)cc1O [Compound 5, 3,4,2ʹ,4ʹ-tetrahydroxychalcone] | 
 | 4.39 | O=C(/C=C/c1ccc(O)c(O)c1)c1ccccc1 [Compound 3, 3,4-dihydroxychalcone] | 
 | 4.72 | COc1ccc(C(=O)/C=C/c2ccc(O)c(O)c2)c(O)c1 [Compound 10, 3,4,2ʹ-trihydroxy-4ʹ-methoxychalcone] | 
 | 4.79 | O=C(/C=C/c1ccc(O)cc1O)c1ccc(O)cc1O [Compound 6, 2,4,2′,4′-tetrahydroxychalcone] | 
 | 5.60 | COc1ccc(C(=O)/C=C/c2ccc(O)c(O)c2)c(OC)c1 [Compound 11, 3,4-dihydroxy-2ʹ,4ʹ-dimethoxychalcone] | 
most potent active | 5.62 | COc1ccc(C(=O)/C=C/c2ccc(O)c(O)c2)c(O)c1C(=O)/C=C/c1ccc(O)c(O)c1 [Compound 13, 3ʹ-caffeoyl-3,4,2ʹ-trihydroxy-4ʹ-methoxychalcone] | 200 to 201 °C
 | < 4.00 | COc1ccc(/C=C/C(=O)c2ccc(O)cc2O)cc1OC [Compound 9, 2ʹ,4ʹ-dihydroxy-3,4-dimethoxychalcone] | 
 | < 4.00 | COc1ccc(/C=C/C(=O)c2ccccc2)cc1OC [Compound 15, 3,4-dimethoxychalcone] | 
 | 4.66 | COc1ccc(/C=C/C(=O)c2ccc(O)cc2O)c(O)c1 [Compound 12, 2,2ʹ,4ʹ-trihydroxy-4-methoxychalcone] | 
 | < 4.00 | COc1ccc(/C=C/C(=O)c2ccccc2)cc1O [Compound 14, 3-hydroxy-4-methoxychalcone] | 

SMILES | XO inhibitory activity (in words) (xanthine oxidase) | pIC50 (xanthine oxidase) | melting point
CC(=O)Oc1ccc(C(=O)/C=C/c2ccc(OC(C)=O)c(OC(C)=O)c2)c(O)c1 [Compound 17, 3,4,4ʹ-triacetoxy-2ʹ-hydroxychalcone] |  | < 4.00 | 110 to 111 °C
O=C(/C=C/c1ccccc1)c1ccccc1 [Compound 18, chalcone] | not displayed xanthine oxidase inhibitory activity | < 4.00 | 
